The text below walks through data of article PMC12731165, “Dual Modulation of Cardiac Ion Pumps: A Small-Molecule SERCA2a SUMOylation Enhancer Also Inhibits the Na^+/K^+-ATPase” (Biomedicines, 2025).

Test [1] addresses T1, Na^+/K^+-ATPase (NKA), α1 isoform (Sus scrofa, UniProt P05024).
T1 construct: gene ATP1A1; native enzyme purified from porcine kidney outer medulla (α/β heterodimer); with NKA β-subunit (α/β heterodimer)
Description: ouabain-sensitive ATP hydrolysis ([…] ouabain), NADH-coupled assay. It is filed as biochemical.

For test [2], the target named is T1, Na^+/K^+-ATPase (NKA), α1 isoform. Description: ouabain-sensitive ATPase activity, NADH-coupled assay at […] nm, […] °C. It counts as biochemical.

Take `C[C@@H]1O[C@@H](O[C@H]2C[C@@H](O)[C@]3(CO)[C@H]4[C@H](O)C[C@]5(C)[C@@H](C6=CC(=O)OC6)CC[C@]5(O)[C@@H]4CC[C@]3(O)C2)[C@H](O)[C@H](O)[C@H]1O` [ouabain]: the “ouabain-sensitive ATP hydrolysis (500 μM ouabain), NADH-coupled assay” value in test [1] was “The enzymatic activity was verified through ouabain (OUA)-sensitive ATP hydrolysis assays prior to use in experiments”.
`COc1ccc(-c2nnc(Nc3nc4c(OC)cccc4s3)o2)cc1` [N106, N-(4-methoxy-1,3-benzothiazol-2-yl)-5-(4-methoxyphenyl)-1,3,4-oxadiazol-2-amine] came in with an IC50 in test [2] of 7 ± 1 µM.

As usually defined, the IC50 is the concentration at which inhibition is half-maximal.
